The target of the assay is Luciferin 4-monooxygenase (Photinus pyralis) (UniProt P08659). The assay is described as follows: firefly luciferase inhibitor potency, HSP90 counter-screen, dose response, artefact control for HSP90 inhibitor project, biochemical, luminescence (AID 1912). The conditions noted are these: purified firefly luciferase, luminescence inhibition. (The purpose of a counterscreen is to sort out artefacts and off-target activity.)

Activity calls are given as the source filed them. No rule for the calls is given here.

Sequence of Luciferin 4-monooxygenase (Photinus pyralis) (P08659 whole entry, looked up): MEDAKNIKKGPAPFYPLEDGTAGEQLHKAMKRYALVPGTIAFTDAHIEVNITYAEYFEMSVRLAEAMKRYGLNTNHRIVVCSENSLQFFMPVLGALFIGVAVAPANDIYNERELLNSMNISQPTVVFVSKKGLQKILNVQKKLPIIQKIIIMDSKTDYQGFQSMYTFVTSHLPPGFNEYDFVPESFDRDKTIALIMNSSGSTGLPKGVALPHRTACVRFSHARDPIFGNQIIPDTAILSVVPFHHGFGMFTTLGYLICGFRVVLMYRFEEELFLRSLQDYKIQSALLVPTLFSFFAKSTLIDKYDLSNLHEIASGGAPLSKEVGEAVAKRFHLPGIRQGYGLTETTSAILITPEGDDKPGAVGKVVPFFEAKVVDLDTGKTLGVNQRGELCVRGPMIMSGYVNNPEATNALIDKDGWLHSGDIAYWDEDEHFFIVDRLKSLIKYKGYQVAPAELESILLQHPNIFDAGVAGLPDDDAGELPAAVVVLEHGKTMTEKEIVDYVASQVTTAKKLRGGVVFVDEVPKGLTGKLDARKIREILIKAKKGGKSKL

For orientation: IC50 means the concentration that inhibits the measured activity by half. As for `O=S(=O)(Cc1ccccc1)N(O)c1ccccc1`, the IC50 is > 60 µM (inactive).

As for `COCCn1c(C)cc(C(=O)Cn2nc(C(=O)O)c3ccccc3c2=O)c1C`, the IC50 result was “inactive”.

Turning to `O=C(CN1C(=O)c2ccccc2S1(=O)=O)N1CCc2ccccc21`, the IC50 was > 60 µM (inactive).

Consider `COC(=O)NCCOC(=O)N(O)c1ccc(Br)cc1`, for which the IC50 is > 60 µM (inactive).

As to `CCN(CC)c1ccc2cc(NC(=O)CCC(=O)O)c(=O)oc2c1`, the IC50 is > 60 µM (inactive).

Regarding `Cc1cc2ccccc2n1CCNC(=O)c1ccccc1`, the IC50 is > 60 µM (inactive).

In the case of `O=C(O)c1cccc(-n2c(O)c(C=C3N=c4ccccc4=N3)sc2=S)c1`, the IC50 is > 60 µM (inactive).

On to `Cc1c(-c2nc(-c3ccc(C(C)(C)C)cc3)no2)n(C)oc1=O`, for which the IC50 was > 60 µM (inactive).

With `Cc1cc(C)c(S(=O)(=O)/N=C2\C=C(Nc3ccc(C(=O)O)cc3)C(=O)c3ccccc32)c(C)c1`, the IC50 is > 60 µM (inactive).

As to `Cc1ccc(S(=O)(=O)/N=C2\C=C(Nc3cccc(C(=O)O)c3)C(=O)c3ccccc32)cc1`, the IC50 is > 60 µM (inactive).

In the case of `Cc1nc(CS(=O)(=O)c2ccc(Cl)cc2)sc1C(=O)O`, the IC50 is > 60 µM (inactive).

As to `Cc1ccc(C(=O)CN2C(=O)c3ccccc3S2(=O)=O)cc1`, the IC50 was > 60 µM (inactive).

For `CCOC(=O)c1csc(NC(=O)c2ccc(OCC)cc2)n1`, the IC50 is > 60 µM (inactive).

`CCOC(=O)c1csc(COc2ccc(OC)cc2)n1`: the IC50 is > 60 µM (inactive).

Consider `O=C1C(Nc2ccc(O)cc2)=C/C(=N/S(=O)(=O)c2cccs2)c2ccccc21`, for which the IC50 result is “inactive”.

As to `COc1ccc(/C=C/c2noc(-c3ccccc3OC(C)=O)n2)cc1`, the IC50 entry is “inactive”.

Turning to `Nc1cc(-c2ccccc2)ccc1O`, the IC50 was > 60 µM (inactive).

As to `Cc1nc2ccc(C(=O)O)cc2[nH]1`, the IC50 was > 60 µM (inactive).

Regarding `CCc1ccc(S(=O)(=O)/N=C2\C=C(Nc3ccc(C(=O)O)cc3)C(=O)c3ccccc32)cc1`, the IC50 is > 60 µM (inactive).

Take `O=C(OCc1ccccn1)c1ccc(COc2ccc3ccccc3c2)o1`: the IC50 was > 60 µM (inactive).

In the case of `O=C(O)CSCC(=O)Nc1ccc(C2CCCCC2)cc1`, the IC50 was > 60 µM (inactive).

In the case of `Cc1cc2ccccc2n1CCNC(=O)c1cccs1`, the IC50 was > 60 µM (inactive).

For `CC(=O)Nc1ccccc1OCC(=O)c1cc(C)n(Cc2cccs2)c1C`, the IC50 was > 60 µM (inactive).

As for `Cc1c(-c2nc(-c3ccc(C(F)(F)F)cc3)no2)n(C)oc1=O`, the IC50 is > 60 µM (inactive).

Consider `C=CCn1c(NS(=O)(=O)c2ccccc2)c(S(=O)(=O)c2ccc(C)cc2)c2nc3ccccc3nc21`, for which the IC50 is > 60 µM (inactive).

For `CC(C)(C)c1ccc(C(=O)c2c[nH]c(C(=O)O)c2)cc1`, the IC50 entry is “inactive”.

Take `Cc1cc(C(=O)Cn2nc(C(=O)O)c3ccccc3c2=O)c(C)n1CC(F)(F)F`: the IC50 is > 60 µM (inactive).

Consider `Cc1ccc(OCc2ccc(C(=O)O)o2)cc1C`, for which the IC50 entry was “inactive”.

With `CC1=NN(c2ccccc2)C(=O)/C1=C\N(O)c1ccccc1`, the IC50 is > 60 µM (inactive).

For the compound `O=C(O)c1ccc(NC2=C/C(=N/S(=O)(=O)c3ccccc3)c3ccccc3C2=O)cc1`, the IC50 was > 60 µM (inactive).

`CCc1ccc(Nc2n[n+](-c3ccccc3)c(-c3ccc(N(CC)CC)cc3)s2)cc1`: the IC50 was > 60 µM (inactive).

`CC(=O)c1ccc(N=Nc2c(C)[nH]n(-c3ccccc3)c2=O)cc1`: the IC50 is > 60 µM (inactive).

Consider `O=[N+]([O-])c1ccc(N=Nc2ncc[nH]2)cc1`, for which the IC50 was > 60 µM (inactive).

As to `CCOC(=O)C1CCCN(C(=O)c2sc3nc(-c4ccc(OC)cc4)cn3c2C)C1` (centres undefined), the IC50 was > 60 µM (inactive).

In the case of `COc1cc(/C=C/[N+](=O)[O-])ccc1OCc1cccc(C(=O)O)c1`, the IC50 entry was “inactive”.

As to `CCc1ccc(OCc2ccc(C(=O)OC)o2)cc1`, the IC50 was > 60 µM (inactive).

Regarding `CC(=O)Oc1ccc(Nc2ccccc2)cc1`, the IC50 was > 60 µM (inactive).

Take `Cc1ccc2nc(NC(=O)CSCC(=O)OCC(=O)c3ccccc3)sc2c1`: the IC50 is > 60 µM (inactive).

For the compound `O=C(O)c1ccc(S(=O)(=O)/N=C2\C=C(Nc3ccccc3F)C(=O)c3ccccc32)cc1`, the IC50 was > 60 µM (inactive).

For the compound `Cc1cc(NC(=O)c2coc(=O)c(Br)c2)ccc1C(C)C`, the IC50 was > 60 µM (inactive).

As for `COC(=O)c1ccc2nc(NC(=O)C3CC3)sc2c1`, the IC50 is > 60 µM (inactive).

In the case of `Cc1nc(NC(=O)c2ccc(F)cc2)sc1C(=O)Nc1ccc2c(c1)CCC2`, the IC50 is > 60 µM (inactive).

As for `O=[N+]([O-])c1ccc(S(=O)(=O)N2CCN=C2SCc2ccc(F)cc2)cc1`, the IC50 is > 60 µM (inactive).

Regarding `O=C(O)c1cc(N/N=C/c2c[nH]c3ccccc23)ccc1Cl`, the IC50 was > 60 µM (inactive).

In the case of `CCC(C)c1ccc(OCc2ccc(C(=O)OC)o2)cc1` (centres undefined), the IC50 is > 60 µM (inactive).

On to `Cc1ccc2oc(=O)c(/C=C(\O)c3ccco3)nc2c1`, for which the IC50 was > 60 µM (inactive).

For `Cc1nc(NC(=O)c2cccc(Cl)c2)sc1C(=O)N1CCCCC1`, the IC50 was > 60 µM (inactive).

As to `Cc1oc(-c2ccc(-c3ccccc3)cc2)nc1CN(C)C1CCOC1` (centres undefined), the IC50 is > 60 µM (inactive).

With `COC(=O)c1ccc(NC(=O)c2ccc(C)cc2)o1`, the IC50 is > 60 µM (inactive).

For the compound `Cc1ccc(/C=C2\SC(=S)N(CCCC(=O)Nc3ccccn3)C2=O)cc1`, the IC50 was > 60 µM (inactive).

Turning to `CCc1ccc(S(=O)(=O)/N=C2\C=C(Nc3ccc(O)cc3)C(=O)c3ccccc32)cc1`, the IC50 was > 60 µM (inactive).

With `Cc1ccc(S(=O)(=O)/N=C2\C=C(Nc3cccc(C(=O)O)c3)C(=O)c3ccccc32)c(C)c1`, the IC50 was > 60 µM (inactive).

Take `CCC(=O)Nc1ccccc1C(=O)OCC(=O)c1ccccc1`: the IC50 was > 60 µM (inactive).

Consider `Nc1c(-c2ccccc2)cnn1-c1ccc(C(=O)O)cc1`, for which the IC50 entry was “inactive”.

Take `CCCc1ccc(OCc2ccc(C(=O)N3CCSCC3)o2)cc1`: the IC50 entry is “inactive”.

`COc1ccccc1NC(=O)c1coc(=O)c(Br)c1`: the IC50 is > 60 µM (inactive).

Regarding `COc1cc(/C=N/Nc2ccc(Cl)c(C(=O)O)c2)ccc1OC(=O)c1ccco1`, the IC50 is > 60 µM (inactive).

Consider `COC(=O)c1ccccc1NC1=C/C(=N\S(=O)(=O)c2ccc(C(=O)O)cc2)c2ccccc2C1=O`, for which the IC50 is > 60 µM (inactive).

For `COC(=O)c1ccccc1OCCCOc1ccc(C)cc1OC`, the IC50 is > 60 µM (inactive).

Take `CNC(=S)N/N=C/c1ccc(-c2ccc(C(=O)O)cc2)o1`: the IC50 was > 60 µM (inactive).

Turning to `CN1C(=O)S/C(=C/c2ccc(OCc3cccc(C(=O)O)c3)cc2)C1=O`, the IC50 was > 20 µM (inactive).

For the compound `Cc1[nH]n(-c2ccccc2)c(=O)c1N=Nc1ccc(C(N)=O)cc1`, the IC50 was > 60 µM (inactive).

As for `CC(C)Sc1nc(SCC(=O)NCc2ccco2)c2c3c(sc2n1)COC(C)(C)C3`, the IC50 was > 60 µM (inactive).

As for `O=C(CN1C(=O)c2ccccc2S1(=O)=O)c1ccccc1Cl`, the IC50 entry was “inactive”.

The record behind these values is PubChem BioAssay AID1912 (The Scripps Research Institute Molecular Screening Center, 2009).
